Data taken from ChEMBL document CHEMBL1124812, “Vinblastine and vincristine are inhibitors of monoamine oxidase B” (J Med Chem, 1990).

Biological target: T1, Amine oxidase [flavin-containing] B (Bos taurus, UniProt P56560)
T1 sequence (P56560 whole entry): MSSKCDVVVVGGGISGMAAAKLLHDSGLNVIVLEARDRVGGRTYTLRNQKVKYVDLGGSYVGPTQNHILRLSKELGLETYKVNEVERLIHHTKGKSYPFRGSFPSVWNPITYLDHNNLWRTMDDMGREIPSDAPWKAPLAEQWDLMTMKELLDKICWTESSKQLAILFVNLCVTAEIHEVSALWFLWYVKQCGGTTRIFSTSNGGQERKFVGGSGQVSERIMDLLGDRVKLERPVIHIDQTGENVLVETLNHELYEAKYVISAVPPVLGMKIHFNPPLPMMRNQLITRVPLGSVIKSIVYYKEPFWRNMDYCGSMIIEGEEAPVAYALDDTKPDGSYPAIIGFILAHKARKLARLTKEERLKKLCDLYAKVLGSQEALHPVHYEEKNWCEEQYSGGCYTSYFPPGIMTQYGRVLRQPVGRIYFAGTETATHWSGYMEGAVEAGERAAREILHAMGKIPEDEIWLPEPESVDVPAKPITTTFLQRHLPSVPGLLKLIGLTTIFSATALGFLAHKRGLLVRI
Experiment: Inhibitory activity against Monoamine oxidase B isolated from beef liver mitochondria was determined

Ki: 77 µM
SMILES: CC[C@]1(O)C[C@@H]2CN(CCc3c([nH]c4ccccc34)[C@@](C(=O)OC)(c3cc4c(cc3OC)N(C)[C@H]3[C@@](O)(C(=O)OC)[C@H](OC(C)=O)[C@]5(CC)C=CCN6CC[C@]43[C@@H]65)C2)C1 [VINBLASTINE]
